Results from US6967196B1, “Sulfonamide compounds and uses thereof” (Bristol-Myers Squibb Company, priority 1999, dated 2005).
Where a name gives a salt, the structure may show the parent alone. Read-outs that look alike come from different tables or passages of the source. Blank lines part the entries; values can stand above or below the compound they belong to.

Test system: amyloid β production in transfected H4 (human neuroglioma) cells stably expressing APP constructs
Experiment: In vitro cell-based assay of inhibitors of amyloid β production (ELISA)
Conditions: amyloid β in medium by ELISA
Procedure: In Vitro Cell-Based Assay of Inhibitors of Amyloid β Production
Transfected H4 (human neuroglioma) cells stably expressing APP constructs are used to identify and assess inhibitors of Aβ production. In brief, cells lines are exposed to compounds, and the effect of each compound on amyloid β production is determined by measuring the amount of amyloid β produced using an enzyme linked immunosorbent assay (ELISA) that detects amyloid β (see, for example, Seubert et al., (1992) Nature, 359:325-327).
Transfected cells that stably express wild-type and variant forms of APP are plated in 96-well format plates at a density sufficient for the rapid detection of the secreted amyloid β (experimentally predetermined for a particular stable cell population). Cells are plated at least six hours prior to the introduction of the test compound at which time the growth medium is replaced by fresh medium containing the compound to be tested. All synthetic agents are initially screened at doses ranging from 10-100 μM. Higher dilutions of agents can be used to minimize cytotoxicity. Incubation of cells with a test compound continues for approximately 16 hours at which time aliquots of medium from each well are removed and assayed for amyloid β.
ELISA is carried out by methods known in the art (see, e.g., Haass et al., Antibodies: A Laboratory Manual, Harlow and lane, Editors, Cold Spring Harbor Press, 1988) The capture antibody is typically a mouse monoclonal (IgG1/kβ-APPa) which recognizes the carboxyl terminal epitope of amyloid β. The specificity of the capture antibody insures measurement of amyloid β without interference from other secreted APP fragments that share amino acid sequence (amyloid β 1-16) homology with amyloid β but lack the carboxy-terminal region. The detecting antibody is typically an affinity-purified rabbit polyclonal antibody that is specific for the amino terminus of amyloid β.
Results from test compounds are compared to results obtained when cells are treated with control agents. Amyloid β levels are determined by comparison to a standard curve obtained by subjecting a range of known amounts of amyloid β to the ELISA.
A compound is identified as “active” when it inhibits cellular production of amyloid β relative to levels in control samples by at least 50% at the initial tested concentration without significant cytotoxicity. Active compounds are then assayed in dose-response experiments to determine the lowest dose of compound necessary for inhibition of amyloid β production.

[1] = transfected H4 cells stably expressing APP, approximately 16 hours incubation, Table B, read-out: ACTIVITY (IC50, inhibition of amyloid β production)
[2] = transfected H4 cells stably expressing APP constructs, approximately 16 hours incubation, read-out: ACTIVITY (IC50, inhibition of amyloid β production)
[3] = Homo sapiens, 16 h, transfected H4 cells stably expressing APP, approximately 16 hours incubation, read-out: ACTIVITY (IC50, inhibition of amyloid β production)
[4] = Homo sapiens, 16 h, transfected H4 cells expressing APP, approximately 16 hours incubation, read-out: ACTIVITY (IC50, inhibition of amyloid β production)
[5] = transfected H4 cells stably expressing APP, approximately 16 hours incubation, read-out: ACTIVITY (IC50, inhibition of amyloid β production)
[6] = transfected H4 cells stably expressing APP, approx. 16 h incubation, read-out: ACTIVITY (IC50, inhibition of amyloid β production)

Compound: C=C(C)C(=O)CCCc1cc(F)ccc1[C@@H](C)N(c1cc(F)ccc1F)S(=O)(=O)c1ccc(Cl)cc1 [Example 207, 4-chloro-N-(2,5-difluorophenyl)-N-{(1R)-1-[4-fluoro-2-(5-methyl-4-oxo-5-hexenyl)phenyl]ethyl}benzenesulfonamide]
- IC50 (Homo sapiens, 16 h, Table B, transfected H4 cells stably expressing APP, approximately 16 hours incubation, read-out: ACTIVITY (inhibitory concentration IC50, inhibition of amyloid β production)): 25 to 50 nM

Compound: COC(=O)CCSCCc1cc(F)ccc1[C@@H](C)N(c1cc(F)ccc1F)S(=O)(=O)c1ccc(Cl)cc1 [Example 473]
- IC50 [1]: 50 to 100 nM

Compound: COC(=O)[C@@H](NC(=O)CCC[C@@H](C)N(c1cc(Cl)ccc1F)S(=O)(=O)c1ccc(Cl)cc1)C(C)C [Example 1264, (R)-4-Chloro-N-(5-chloro-2-fluorophenyl)-N-[5-[N-(S)-[1-(methoxycarbonyl)-2-methylpropyl]amino]-1-methyl-6-oxopentyl]benzenesulfonamide]
- IC50 [2]: 100 to 500 nM

Compound: O=S(=O)(c1ccc(Cl)cc1)N(Cc1cc(Cl)ccc1C#CCCN1CCCCC1)c1ccccc1 [Example 990, 4-chloro-N-{5-chloro-2-[4-(1-piperidinyl)-1-butynyl]benzyl}-N-phenylbenzenesulfonamide hydrochloride]
- IC50 [3]: > 500 nM

Compound: C[C@H](C(=O)NCc1ccncc1)N(c1cc(Cl)ccc1F)S(=O)(=O)c1ccc(Cl)cc1 [Example 1313]
- IC50 [4]: 100 to 500 nM

Compound: CC(C)NC(=O)OC[C@@H](C)N(c1cc(Cl)ccc1CO)S(=O)(=O)c1ccc(Cl)cc1 [Example 1286]
- IC50 [4]: ≤ 25 nM

Compound: C[C@H](C(=O)NCCCCCCO)N(c1cc(Cl)ccc1F)S(=O)(=O)c1ccc(Cl)cc1 [Example 1350]
- IC50 [4]: 100 to 500 nM

Compound: C[C@H](C(=O)NCCc1ccncc1)N(c1cc(Cl)ccc1F)S(=O)(=O)c1ccc(Cl)cc1 [Example 1304]
- IC50 [4]: 100 to 500 nM

Compound: C[C@H](C(=O)NC1CCCCC1)N(c1cc(Cl)ccc1F)S(=O)(=O)c1ccc(Cl)cc1 [Example 1308]
- IC50 [4]: 100 to 500 nM

Compound: CN1CCCC1CCOc1ccccc1CN(c1ccccc1)S(=O)(=O)c1ccc(Cl)cc1 (centres unmarked) [Example 277, 4-Chloro-N-{2-[2-(1-methyl-2-pyrrolidinyl)ethoxy]benzyl}-N-phenylbenzenesulfonamide Hydrochloride]
- IC50 [1]: 25 to 50 nM

Compound: COC(=O)[C@H](CC(C)C)NC(=O)CCC[C@@H](C)N(c1cc(Cl)ccc1F)S(=O)(=O)c1ccc(Cl)cc1 [Example 541]
- IC50 [6]: 100 to 500 nM

Compound: COc1ccc(S(=O)(=O)CCCOc2ccccc2CN(Nc2cc(F)ccc2F)S(=O)(=O)c2ccc(Cl)cc2)cc1 [Example 871, 4-chloro-N-(2,5-difluoroanilino)-N-(2-{3-[(4-methoxyphenyl)sulfonyl]propoxy}benzyl)benzenesulfonamide]
- IC50 [3]: 100 to 500 nM

Compound: O=S(=O)(c1ccc(Cl)cc1)N(Cc1cc(Cl)ccc1OCCCN1CCCCC1)c1ccccc1 [Example 964, 4-chloro-N-{5-chloro-2-[3-(1-piperidinyl)propoxy]benzyl}-N-phenylbenzenesulfonamide hydrochloride]
- IC50 [3]: > 500 nM

Compound: COCCCNC(=O)[C@@H](C)N(c1cc(Cl)ccc1F)S(=O)(=O)c1ccc(Cl)cc1 [Example 1346]
- IC50 [4]: 100 to 500 nM

Compound: C[C@H](CCCCN1CCCC(S(C)(=O)=O)C1)N(c1cc(Cl)ccc1Cl)S(=O)(=O)c1ccc(Cl)cc1 (stereo partly drawn) [Example 1115, 4-chloro-N-(2,5-dichlorophenyl)-N-[5-[(3-methylsulfonyl)-1-piperidinyl]-1(R)-methylpentyl]benzenesulfonamide]
- IC50 [2]: 25 to 50 nM

Compound: 4-chloro-N-(2,5-difluorophenyl)-N-[(1R)-1-(4-[(ethylsulfonyl)amino]butyl}-4-fluorophenyl)ethyl]benzenesulfonamide [Example 1075]
- IC50 [5]: > 500 nM

Compound: O=S(=O)(c1ccc(Cl)cc1)N(Cc1ccccc1OCCCN1CCCCC1)[C@H]1CC2CCC1C2 (stereo partly drawn) [Example 969, N-{(2S)-bicyclo[2.2.1]hept-2-yl]-4-chloro-N-{2-[3-(1-piperidinyl)propoxy]benzyl}benzenesulfonamide hydrochloride]
- IC50 [5]: > 500 nM

Compound: N-{3-[2-({[(4-chlorophenyl)sulfonyl]-2,5-difluoroanilino}methyl)phenoxy]propyl}-4-ethoxy-N-methylbenzamide [Example 1010]
- IC50 [5]: > 500 nM

Compound: N-{3-[2-({[(4-chlorophenyl)sulfonyl]-2,5-difluoroanilino}ethyl)phenoxy]propyl}-3,4,5-trimethoxy-N-methylbenzamide [Example 913]
- IC50 [5]: > 500 nM

Compound: ethyl (2E)-3-[2-({[(4-chlorophenyl)sulfonyl]anilino}methyl)phenyl]-2-propenoate [Example 971]
- IC50 [5]: > 500 nM

Compound: C[C@H](CCCNC(=O)Oc1ccccc1)N(c1cc(Cl)ccc1Cl)S(=O)(=O)c1ccc(Cl)cc1 [Example 1154, 4-chloro-N-(2,5-dichlorophenyl)-N-[4-[[(phenoxy)carbonyl]amino]-1-methylbutyl]benzenesulfonamide]
- IC50 (Homo sapiens, transfected H4 cells stably expressing APP constructs, approximately 16 hours incubation, read-out: ACTIVITY (IC50, inhibition of amyloid β production)): 100 to 500 nM

Compound: 3,5-dichloro-N-{3-[2-({[(4-chlorophenyl)sulfonyl]-2,5-difluoroanilino}methyl)phenoxy]propyl}-N-methylbenzamide [Example 1002]
- IC50 [5]: > 500 nM

More lines, now with the values ahead:

- IC50 (Table B, transfected H4 cells stably expressing APP, approximately 16 hours incubation, read-out: ACTIVITY (inhibitory concentration IC50, inhibition of amyloid β production)): ≤ 25 nM
Compound: Nc1cc(Cl)ccc1COC1CCCCO1 (centres unmarked) [Example 3, 5-Chloro-2-[[(tetrahydro-2H-pyran-2-yl)oxy]methyl]benzenamine]

- IC50 [5]: > 500 nM
Compound: 3-[2-((1R)-1-{[(4-chlorophenyl)sulfonyl]-2,5-difluoroanilino}ethyl)-5-fluorophenyl]-1-propanesulfonic acid [Example 881]

- IC50 [6]: 100 to 500 nM
Compound: N-{3-[2-({[(4-chlorophenyl)sulfonyl]-2,5-difluoroanilino}methyl)phenoxy]propyl}-2-methoxy-N-methylbenzamide [Example 775]

- IC50 [3]: 100 to 500 nM
Compound: O=S(=O)(c1ccc(Cl)cc1)N(Cc1ccccc1OCCCN1CCC2(CC1)OCCO2)c1ccccc1 [Example 877, 4-chloro-N-{2-[3-(1,4-dioxa-8-azaspiro[4.5]dec-8-yl)propoxy]benzyl}-N-phenylbenzenesulfonamide]

- IC50 [6]: 100 to 500 nM
Compound: N-{3-[2-({[(4-chlorophenyl)sulfonyl]-2,5-difluoroanilino}methyl)phenoxy]propyl}-4-fluoro-N-methylbenzamide [Example 747]

- IC50 [1]: 100 to 500 nM
Compound: (2E)-N-{4-[2-(1-{[(4-chlorophenyl)sulfonyl]-2,5-difluoroanilino}ethyl)phenoxy]butyl}-N-ethyl-2-butenamide [Example 514]

- IC50 (Homo sapiens, 16 h, transfected H4 cells stably expressing APP, approx. 16 h incubation, read-out: ACTIVITY (IC50, inhibition of amyloid β production)): 100 to 500 nM
Compound: CC(c1ccccc1OCCN(C)S(=O)(=O)C(C)C)N(c1cc(F)ccc1F)S(=O)(=O)c1ccc(Cl)cc1 (centres unmarked) [Example 735, 4-chloro-N-(2,5-difluorophenyl)-N-[1-(2-{2-[(isopropylsulfonyl)(methyl)amino]ethoxy}phenyl)ethyl]benzenesulfonamide]

- IC50 [6]: 100 to 500 nM
Compound: (2E)-1-N-{3-[2-({[(4-chlorophenyl)sulfonyl]-2,5-difluoroanilino}methyl)phenoxy]propyl}-N-methyl-2-butenamide [Example 783]

- IC50 [4]: 100 to 500 nM
Compound: CC1CCCC(NC(=O)[C@@H](C)N(c2cc(Cl)ccc2F)S(=O)(=O)c2ccc(Cl)cc2)C1 (some centres unmarked) [Example 1347]

- IC50 (Homo sapiens, 16 h, transfected H4 cells stably expressing APP constructs, approximately 16 hours incubation, read-out: ACTIVITY (IC50, inhibition of amyloid β production)): 25 to 50 nM
Compound: COC(=O)C1SCCN1CC[C@@H](C)N(c1cc(Cl)ccc1Cl)S(=O)(=O)c1ccc(Cl)cc1 (stereo partly drawn) [Example 1119, 4-chloro-N-(2,5-dichlorophenyl)-N-[3-(2-methoxycarbonyl-3-thiazolidinyl)-1(R)-methylpropyl]benzenesulfonamide]
